{"source": "ChEMBL document CHEMBL1201862", "about": "“PubChem BioAssay data set” (2004)", "key": {"[1]": {"assay": "blockers of HIV-1 envelope-mediated cell-cell fusion – cherry-pick, dose response (AID 652057)", "assay_type": "functional, cell-based"}, "[2]": {"assay": "blockers of HIV-1 ZM109 envelope-driven cell-cell fusion – HeLa effector, CEM target cells, luciferase, cherry-pick, dose response (AID 652058)", "assay_type": "functional, cell-based"}, "[3]": {"assay": "inhibition of Env-driven cell fusion – HIV entry, plate reader, dry powder, dose response (AID 687023)", "assay_type": "functional, cell-based"}, "Paired box protein Pax-8": {"target": "Paired box protein Pax-8 (Homo sapiens, UniProt Q06710)", "sequence (Q06710 whole entry)": "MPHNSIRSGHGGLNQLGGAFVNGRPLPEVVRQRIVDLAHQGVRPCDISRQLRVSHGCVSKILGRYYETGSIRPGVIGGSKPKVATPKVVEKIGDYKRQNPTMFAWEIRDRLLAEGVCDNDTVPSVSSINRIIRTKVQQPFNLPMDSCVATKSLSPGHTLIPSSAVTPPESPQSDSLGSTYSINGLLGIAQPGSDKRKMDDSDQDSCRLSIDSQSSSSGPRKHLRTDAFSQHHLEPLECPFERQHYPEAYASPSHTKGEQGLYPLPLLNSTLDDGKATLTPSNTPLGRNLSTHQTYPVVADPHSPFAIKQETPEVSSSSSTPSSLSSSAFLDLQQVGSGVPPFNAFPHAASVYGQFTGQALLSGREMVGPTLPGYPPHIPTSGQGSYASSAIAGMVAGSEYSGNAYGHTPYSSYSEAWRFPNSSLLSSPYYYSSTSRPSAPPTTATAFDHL", "assay": "PAX8 transcriptional activity inhibition in RMG-I – RMG-I cells, luciferase, cherry-pick, dose response (AID 687027);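 further: luciferase reporter driven by Pax8 target thyroperoxidase promoter measured by SteadyGlo luminescence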", "assay_type": "functional, cell-based"}, "[4]": {"assay": "A2780 cell killing – plate reader, dry powder samples, cytotoxicity control, dose response (AID 743046)", "assay_type": "functional, cell-based"}, "[5]": {"assay": "OVCAR8 cell viability loss – plate reader, dry powder samples, PAX8 project, dose response (AID 743197)", "assay_type": "functional, cell-based", "conditions": "OVCAR-8"}, "[6]": {"assay": "inhibitors acting on PAX2 in cells – cell-based, plate reader, dry powder samples, selectivity assay for PAX8 inhibitor project, dose response (AID 743048);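 further: HEK293 cells carrying a WT1 promoter luciferase reporter driven by expressed Pax2; potency is for inhibition of Pax2 driven reporter signal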", "assay_type": "functional"}, "[7]": {"assay": "toxicity toward immortalized ovarian surface epithelium – cell-based, plate reader, dry powder samples, cytotoxicity control for PAX8 inhibitor project, dose response (AID 743045)", "assay_type": "functional"}, "[8]": {"assay": "OVCAR-3 cell viability loss – plate reader, dry powder samples, PAX8 inhibitor project, dose response (AID 743044)", "assay_type": "functional, cell-based"}, "[9]": {"assay": "PAX5 cellular inhibition readout – cell-based, plate reader, dry powder samples, selectivity assay for PAX8 inhibitor project, dose response (AID 743047);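 further: HEK293 cells carrying a Pax5 driven CD19 promoter luciferase reporter; potency of inhibitors that lower reporter luminescence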", "assay_type": "functional"}, "[10]": {"assay": "IGROV1 cell killing – plate reader, dry powder samples, PAX8 inhibitor project, dose response (AID 743043)", "assay_type": "functional, cell-based", "conditions": "IGROV-1"}, "[11]": {"assay": "COV434 cell viability loss – plate reader, dry powder, SA7, cytotoxicity control for PAX8 inhibitor project, dose response (AID 743145)", "assay_type": "functional, cell-based"}, "[12]": {"assay": "OV-90 cell viability loss – plate reader, dry powder, SA8, PAX8 inhibitor project, dose response (AID 743149)", "assay_type": "functional, cell-based"}, "[13]": {"assay": "PAX8-dependent cell viability loss – plate reader, dry powder, dose response (AID 743049)", "assay_type": "functional, cell-based"}, "[14]": {"assay": "HepG2 hepatoma cell viability loss – plate reader, dry powder, cytotoxicity control, dose response (AID 651947)", "assay_type": "functional, cell-based"}, "[15]": {"assay": "CellTiter-Glo luminescence survival assay, SW480 colon tumor line, concentration-response curve, half-maximal inhibitory concentration (AID 1117338)", "assay_type": "functional"}, "[16]": {"assay": "RKO cell viability reduction, dose response, CellTiter-Glo luminescence (AID 1117322)", "assay_type": "functional"}, "[17]": {"assay": "cytotoxicity toward HCT116 cells – cell-based, CellTiter-Glo luminescence, IC50, dose response (AID 1117332)", "assay_type": "functional", "conditions": "HCT-116"}, "[18]": {"assay": "SNU-C1 cell viability reduction, dose response, CellTiter-Glo luminescence (AID 1117323)", "assay_type": "functional, cell-based"}, "[19]": {"assay": "cytotoxicity toward Colo320 cells – cell-based, CellTiter-Glo luminescence, IC50, dose response (AID 1117334)", "assay_type": "functional", "conditions": "COLO 320"}, "[20]": {"assay": "cytotoxicity toward HT-29 cells – cell-based, CellTiter-Glo luminescence, IC50, dose response (AID 1117330)", "assay_type": "functional"}, "[21]": {"assay": "Reduced DLD-1 viability, concentration-response, CellTiter-Glo luminescence (AID 1117352)", "assay_type": "functional"}, "[22]": {"assay": "HCT116 cell viability decrease, GSK3B pretreatment – CellTiter-Glo, IC50, dose response (AID 1117339)", "assay_type": "functional", "conditions": "HCT-116"}, "[23]": {"assay": "T. cruzi growth inhibition in host cells, dose response, cell-based, plate reader, dry powder, set 2 (AID 652275)", "assay_type": "functional"}, "[24]": {"assay": "Trypanosoma cruzi replication inhibitors in host cells – cell-based, plate reader, dry powder samples, dose response (AID 651845)", "assay_type": "functional"}, "[25]": {"assay": "anti-trypanosomal activity in BESM host cells – imaging, CA-I/72 strain, bovine embryo skeletal muscle, dry powder, dose response (AID 651885)", "assay_type": "functional, cell-based"}, "Nonstructural protein 1": {"target": "Nonstructural protein 1 (Influenza A virus, UniProt Q194T2)", "sequence (Q194T2 whole entry)": "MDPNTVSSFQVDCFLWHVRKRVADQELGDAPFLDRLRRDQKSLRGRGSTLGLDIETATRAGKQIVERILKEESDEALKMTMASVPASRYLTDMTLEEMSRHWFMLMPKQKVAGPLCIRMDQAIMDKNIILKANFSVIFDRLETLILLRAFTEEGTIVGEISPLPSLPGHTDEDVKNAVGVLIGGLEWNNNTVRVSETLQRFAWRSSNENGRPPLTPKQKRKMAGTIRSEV", "assay_type": "functional, Influenza A virus (A/California/07/2009(H1N1))"}, "Insulin-degrading enzyme [26]": {"target": "T1, Insulin-degrading enzyme (Homo sapiens, UniProt P14735)", "T1 sequence (P14735 whole entry)": "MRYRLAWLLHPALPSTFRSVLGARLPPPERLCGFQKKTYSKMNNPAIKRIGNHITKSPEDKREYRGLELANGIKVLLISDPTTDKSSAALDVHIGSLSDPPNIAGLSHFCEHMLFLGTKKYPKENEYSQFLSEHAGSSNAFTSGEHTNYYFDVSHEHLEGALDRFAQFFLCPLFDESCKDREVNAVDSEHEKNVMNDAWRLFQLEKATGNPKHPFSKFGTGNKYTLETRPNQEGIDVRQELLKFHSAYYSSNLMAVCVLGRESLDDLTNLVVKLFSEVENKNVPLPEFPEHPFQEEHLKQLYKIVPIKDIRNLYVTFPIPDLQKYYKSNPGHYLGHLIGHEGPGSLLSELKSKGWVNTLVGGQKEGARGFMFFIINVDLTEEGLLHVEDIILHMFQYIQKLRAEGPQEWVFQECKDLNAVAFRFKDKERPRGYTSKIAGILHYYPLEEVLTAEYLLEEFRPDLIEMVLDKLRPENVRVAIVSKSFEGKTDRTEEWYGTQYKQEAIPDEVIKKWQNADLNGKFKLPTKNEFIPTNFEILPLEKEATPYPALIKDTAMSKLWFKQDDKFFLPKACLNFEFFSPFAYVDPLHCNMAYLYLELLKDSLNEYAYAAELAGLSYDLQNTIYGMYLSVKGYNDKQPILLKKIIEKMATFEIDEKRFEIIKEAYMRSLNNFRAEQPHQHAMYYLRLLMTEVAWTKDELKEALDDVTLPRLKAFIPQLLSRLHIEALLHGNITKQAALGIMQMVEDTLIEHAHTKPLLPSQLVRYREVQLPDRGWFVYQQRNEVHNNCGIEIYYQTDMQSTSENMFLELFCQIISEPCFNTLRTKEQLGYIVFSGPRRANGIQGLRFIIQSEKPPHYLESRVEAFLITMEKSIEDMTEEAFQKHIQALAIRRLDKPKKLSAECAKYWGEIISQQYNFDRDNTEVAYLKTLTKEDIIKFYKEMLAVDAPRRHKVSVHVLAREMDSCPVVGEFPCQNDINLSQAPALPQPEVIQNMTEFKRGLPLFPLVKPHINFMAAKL", "assay": "recombinant IDE activation, cell-free – biochemical, fluorescence polarization, counter-screen for IDE activator project, dose response (AID 588681)"}, "Insulin-degrading enzyme [27]": {"target": "T1, Insulin-degrading enzyme", "assay": "cellular IDE activation of Abeta substrate cleavage – fluorescence polarization, HEK cells, dose response (AID 588439)", "assay_type": "functional, cell-based"}, "HEK293 [28]": {"system": "HEK293", "assay": "membrane integrity loss in HEK cells – cell-based, fluorescence, cytotoxicity control for IDE activator project, dose response (AID 588440);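 further: cytotoxicity by LDH release measuring loss of membrane integrity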", "assay_type": "functional", "conditions": "Homo sapiens"}, "HEK293 [29]": {"system": "HEK293", "assay": "optical interference in Abeta FP readout, dose response, artefact control for IDE activator project, biochemical, fluorescence polarization (AID 588442)", "assay_type": "functional, cell-based", "conditions": "Homo sapiens"}, "[30]": {"target": "Ras and Rab interactor 1/Tyrosine-protein kinase ABL1 (Homo sapiens, UniProt P00519+Q13671)", "sequence (P00519 whole entry)": "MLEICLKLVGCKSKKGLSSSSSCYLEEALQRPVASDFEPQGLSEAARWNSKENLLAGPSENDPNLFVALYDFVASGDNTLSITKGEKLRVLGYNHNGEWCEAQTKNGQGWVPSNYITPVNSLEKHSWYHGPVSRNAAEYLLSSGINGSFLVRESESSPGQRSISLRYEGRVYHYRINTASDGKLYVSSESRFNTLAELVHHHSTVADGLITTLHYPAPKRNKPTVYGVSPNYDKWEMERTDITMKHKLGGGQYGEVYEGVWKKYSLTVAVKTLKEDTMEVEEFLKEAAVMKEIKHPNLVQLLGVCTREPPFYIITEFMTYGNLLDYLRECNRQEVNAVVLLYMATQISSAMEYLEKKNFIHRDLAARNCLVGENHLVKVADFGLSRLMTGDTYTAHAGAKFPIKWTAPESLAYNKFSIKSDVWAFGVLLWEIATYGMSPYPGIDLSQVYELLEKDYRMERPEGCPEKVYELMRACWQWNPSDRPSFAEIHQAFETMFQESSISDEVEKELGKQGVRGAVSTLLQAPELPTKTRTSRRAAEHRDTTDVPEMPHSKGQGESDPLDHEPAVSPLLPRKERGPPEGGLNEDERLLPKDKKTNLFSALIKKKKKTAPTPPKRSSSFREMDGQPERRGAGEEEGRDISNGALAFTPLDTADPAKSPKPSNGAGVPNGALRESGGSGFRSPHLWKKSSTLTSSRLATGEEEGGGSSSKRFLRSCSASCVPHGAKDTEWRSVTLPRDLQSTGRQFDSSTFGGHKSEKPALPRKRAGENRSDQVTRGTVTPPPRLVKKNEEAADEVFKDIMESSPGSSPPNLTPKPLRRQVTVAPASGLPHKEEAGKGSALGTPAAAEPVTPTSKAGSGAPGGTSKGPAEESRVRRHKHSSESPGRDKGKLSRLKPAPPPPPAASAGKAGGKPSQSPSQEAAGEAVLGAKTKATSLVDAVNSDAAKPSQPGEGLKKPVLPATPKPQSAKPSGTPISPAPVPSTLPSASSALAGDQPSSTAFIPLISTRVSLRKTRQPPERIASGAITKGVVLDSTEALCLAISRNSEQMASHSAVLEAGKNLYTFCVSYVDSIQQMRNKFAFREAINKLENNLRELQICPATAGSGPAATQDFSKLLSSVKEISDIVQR", "sequence (Q13671 whole entry)": "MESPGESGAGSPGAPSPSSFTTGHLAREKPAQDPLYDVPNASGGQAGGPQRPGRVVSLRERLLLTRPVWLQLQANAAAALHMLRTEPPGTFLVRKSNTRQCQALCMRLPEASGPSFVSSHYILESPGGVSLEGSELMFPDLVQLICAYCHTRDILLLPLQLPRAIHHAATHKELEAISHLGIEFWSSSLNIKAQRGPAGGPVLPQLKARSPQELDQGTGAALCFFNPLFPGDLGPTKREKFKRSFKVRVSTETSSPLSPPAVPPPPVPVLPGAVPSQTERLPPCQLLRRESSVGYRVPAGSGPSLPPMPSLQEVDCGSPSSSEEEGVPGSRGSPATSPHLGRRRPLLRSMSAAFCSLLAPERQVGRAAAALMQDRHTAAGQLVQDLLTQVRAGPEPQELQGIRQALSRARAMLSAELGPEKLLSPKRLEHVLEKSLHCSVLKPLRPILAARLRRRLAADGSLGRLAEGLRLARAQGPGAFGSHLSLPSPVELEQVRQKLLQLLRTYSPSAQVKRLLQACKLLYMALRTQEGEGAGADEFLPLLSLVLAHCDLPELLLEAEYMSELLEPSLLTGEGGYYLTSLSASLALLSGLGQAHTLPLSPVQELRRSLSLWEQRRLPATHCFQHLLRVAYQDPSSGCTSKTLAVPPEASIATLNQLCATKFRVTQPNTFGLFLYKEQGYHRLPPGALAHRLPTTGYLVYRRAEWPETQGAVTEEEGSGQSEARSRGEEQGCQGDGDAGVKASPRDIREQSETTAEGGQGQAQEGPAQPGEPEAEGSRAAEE", "assay_type": "functional"}, "[31]": {"target": "Glutathione-S-transferase (Schistosoma japonicum, UniProt Q26513)", "sequence (Q26513 whole entry)": "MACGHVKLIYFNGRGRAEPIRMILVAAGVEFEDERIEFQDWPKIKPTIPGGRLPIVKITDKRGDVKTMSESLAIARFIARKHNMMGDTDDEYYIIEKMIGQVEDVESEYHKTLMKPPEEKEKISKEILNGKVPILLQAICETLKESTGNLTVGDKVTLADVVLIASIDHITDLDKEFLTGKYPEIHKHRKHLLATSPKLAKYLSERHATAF", "assay": "GST-antibody interaction or FRET quenching – biochemical, TR-FRET, artefact control for Vif-APOBEC3G degradation inhibitor project, dose response (AID 1117362)", "assay_type": "functional"}}, "note": "Where “and” joins values, the source holds several entries; their conditions need not be identical. Equal entries are not always repeated. Calls of active or inactive are those of the source."}
{"molecule": "Cc1noc(C)c1S(=O)(=O)Nc1cccc2c1O[C@H](CN(C)Cc1ccc(C(F)(F)F)cc1)[C@H](C)CN([C@H](C)CO)C2=O", "values": [{"measurement": "AC50", "setting": "[1]", "value": "0.731 µM (active)"}, {"measurement": "AC50", "setting": "[2]", "value": "0.935 µM (active)"}, {"measurement": "AC50", "setting": "[3]", "value": "2.42 µM (active)"}]}
{"molecule": "C[C@H](CO)N1C[C@H](C)[C@@H](CN(C)Cc2ccc(Cl)c(Cl)c2)OCCCC[C@H](C)Oc2ccc(NS(=O)(=O)c3ccc(Cl)cc3)cc2C1=O", "values": [{"measurement": "AC50", "setting": "Paired box protein Pax-8", "value": "11.5 µM (active)"}, {"measurement": "AC50", "setting": "[4]", "value": "4.46 µM (active)"}, {"measurement": "AC50", "setting": "[5]", "value": "> 70 µM (inactive)"}]}
{"molecule": "O=C(C[C@@H]1C[C@H]2c3cc(NS(=O)(=O)c4ccc(F)cc4)ccc3O[C@H]2[C@H](CO)O1)NCc1ccc(Cl)cc1", "values": [{"measurement": "AC50", "setting": "Paired box protein Pax-8", "value": "5.93 µM (active)"}, {"measurement": "AC50", "setting": "[6]", "value": "34.3 µM (active)"}, {"measurement": "AC50", "setting": "[7]", "value": "19.8 µM (active)"}, {"measurement": "AC50", "setting": "[8]", "value": "16.1 µM (active)"}, {"measurement": "AC50", "setting": "[9]", "value": "28.1 µM (active)"}, {"measurement": "AC50", "setting": "[10]", "value": "43 µM (active)"}, {"measurement": "AC50", "setting": "[11]", "value": "0.000676 µM (active)"}, {"measurement": "AC50", "setting": "[12]", "value": "19.1 µM (active)"}, {"measurement": "AC50", "setting": "[5]", "value": "25.8 µM (active)"}, {"measurement": "AC50", "setting": "[13]", "value": "45.7 µM (active)"}]}
{"molecule": "FC(F)(F)c1ccccc1CSc1nnc(-c2ccccc2)o1", "values": [{"measurement": "AC50", "setting": "[14]", "value": "23.1 µM (active)"}]}
{"molecule": "CC(C)(CO)[C@@H](O)C(=O)NCCC(=O)NCCSSCCNC(=O)CCNC(=O)[C@H](O)C(C)(C)CO", "values": [{"measurement": "IC50", "setting": "[15]", "value": "> 20 µM (inactive)"}, {"measurement": "IC50", "setting": "[16]", "value": "> 20 µM (inactive)"}, {"measurement": "IC50", "setting": "[17]", "value": "> 20 µM (inactive)"}, {"measurement": "IC50", "setting": "[18]", "value": "> 20 µM (inactive)"}, {"measurement": "IC50", "setting": "[19]", "value": "> 20 µM (inactive)"}, {"measurement": "IC50", "setting": "[20]", "value": "> 20 µM (inactive)"}, {"measurement": "IC50", "setting": "[21]", "value": "> 20 µM (inactive)"}, {"measurement": "IC50", "setting": "[22]", "value": "> 20 µM (inactive)"}]}
{"molecule": "CC(C)N1C[C@@H](C)[C@H](CN(C)Cc2ccc(Oc3ccccc3)cc2)Oc2c(cccc2N(C)C(=O)c2ccncc2)C1=O", "values": [{"measurement": "AC50", "setting": "[23]", "value": "0.262 µM (active)"}, {"measurement": "AC50", "setting": "[24]", "value": "0.262 µM (active)"}, {"measurement": "IC50", "setting": "[25]", "value": "10 µM (inconclusive)"}]}
{"molecule": "O=C(O)CCCC[C@@H]1SC[C@@H]2NC(=O)N[C@@H]21", "note": "[BIOTIN]", "values": [{"measurement": "IC50", "setting": "Nonstructural protein 1", "value": "< 0.2 µM (active)"}, {"measurement": "EC50", "setting": "Insulin-degrading enzyme [26]", "value": "2.53 µM (active)"}, {"measurement": "EC50", "setting": "Insulin-degrading enzyme [27]", "value": "2.37 µM (active)"}, {"measurement": "IC50", "setting": "HEK293 [28]", "value": "> 89.3 µM (inactive)"}, {"measurement": "EC50", "setting": "HEK293 [29]", "value": "2.06 µM (active)"}, {"measurement": "IC50", "setting": "[30]", "value": "> 3.73 nM (active) and 529 nM (active)"}, {"measurement": "IC50", "setting": "[31]", "value": "0.85 µM (active)"}]}
